The test system of assay [1] is E. coli DH5a harboring CTX-M15. The assay can be described thus: Broth microdilution MIC, engineered E. coli expressing CTX-M15. The format is cell-based. The conditions noted are these: Escherichia coli, read-out: MIC, β-lactamase CTXM. On the procedure:
(§1) To determine the ability of test compounds to potentiate the inhibition of the growth of bacterial strains, classic cell based broth microdilution MIC assays were employed. MIC assays are performed according to CLSI methods except where otherwise noted (CLSI, 2011 and CLSI, 2009). The reference strain S. aureus ATCC 29213 and the hyper-permeable E. coli 901C were used to determine the ability of the PBP compounds to inhibit bacterial growth. Briefly, cryo-preserved bacterial cultures of clinical strains are streaked for isolation on appropriate agar medium, in this case Mueller Hinton II agar. Following incubation to allow formation of colonies these plates are sealed with parafilm and stored refrigerated for up to two weeks. For preparation of assay inocula and to ensure low variability, at least 5 colonies are picked from the agar plates with an inoculating loop and aseptically transferred to a culture tube containing 3 mL of Mueller-Hinton Broth (supplemented with divalent cations to required levels based on Manufacturers' certification). The broth culture is grown for 3-5 hours at 37° C. with shaking at 200 rpm. Meanwhile, 2-fold serial dilutions of test compounds are conducted in a 96 well plate with a final volume of 75 μL per well at 2-fold the final desired concentration. After the dilution plates are set up the growing cultures are then diluted in a cuvette containing MH II broth and the optical density is measured at 600 nm. Inocula are diluted such that 75 μL of this culture in Mueller-Hinton Broth results in a starting bacterial concentration of 5×10^5 CFU/mL when added to the dilution plates. The plates are incubated 16-20 hours at 37° C. The MIC is read visually as the lowest concentration well with no bacterial growth.
(§2) To determine if test compounds were affected by various known β-lactamases, the inhibition of the growth of engineered strains of Escherichia coli harboring select single β-lactamases were tested. […]

Assay [2] concerns E. coli DH5a harboring NDM-1. The assay can be described thus: Broth microdilution MIC, engineered E. coli expressing NDM-1. It is filed as cell-based. As to conditions: Escherichia coli, read-out: MIC, β-lactamase NDM. How it is done:
as §1, §2

For assay [3], the system named is E. coli DH5a harboring IMP-18. The experiment in a line: Broth microdilution MIC, engineered E. coli expressing IMP-18. The format is cell-based. As to conditions: Escherichia coli, read-out: MIC, β-lactamase IMP. How it is done:
as §1, §2
For orientation: Broth dilution looks for growth in wells or tubes with falling amounts of substance.

Assay [4] has as its system E. coli DH5a with pLBII plasmid with no β-lactamase gene. The assay can be described thus: Broth microdilution MIC, engineered E. coli control strain (pLBII plasmid, no β-lactamase gene). It is filed as cell-based. The conditions noted are these: Escherichia coli, read-out: MIC, β-lactamase None. On the procedure: as §1, §2
The subject of assay [5] is engineered strains of Escherichia coli harboring select single β-lactamases. The assay can be described thus: MIC across the panel of engineered E. coli strains harboring select single β-lactamases. The format is cell-based. As to conditions: strains expressing β-lactamases compared with control strain, result in words. On the procedure:
To determine if test compounds were affected by various known β-lactamases, the inhibition of the growth of engineered strains of Escherichia coli harboring select single β-lactamases were tested. These strains were constructed by cloning the gene encoding the particular β-lactamase into the NdeI and BamHI restriction endonuclease sites of plasmid pLBII, placing the gene(s) under the control of the Lac promoter.

The test system of assay [6] is E. coli DH5a harboring OXA-48. The assay can be described thus: Broth microdilution MIC, engineered E. coli expressing OXA-48. The format is cell-based. As to conditions: Escherichia coli, read-out: MIC, β-lactamase OXA. On the procedure: as §1, §2
In assay [7] the test system is E. coli DH5a harboring SHV-5. The experiment in a line: Broth microdilution MIC, engineered E. coli expressing SHV-5. As to conditions: Escherichia coli, read-out: MIC, β-lactamase SHV. It is filed as cell-based. How it is done:
as §1, §2

The subject of assay [8] is E. coli DH5a harboring TEM-24. The assay can be described thus: Broth microdilution MIC, engineered E. coli expressing TEM-24. The format is cell-based. The conditions noted are these: Escherichia coli, read-out: MIC, β-lactamase TEM. On the procedure: as §1, §2
Assay [9] has as its system E. coli DH5a harboring VIM-2. The experiment in a line: Broth microdilution MIC, engineered E. coli expressing VIM-2. It is filed as cell-based. As to conditions: Escherichia coli, read-out: MIC, β-lactamase VIM. On the procedure: as §1, §2
The target in another assay is T1, E. coli PBP2 (Escherichia coli, UniProt P0AD65).
T1 construct: 100 μg's of total membrane protein extracts containing PBPs; endogenous in cells; host or cells: Escherichia coli K12, membrane protein fraction
T1 sequence (P0AD65 whole entry): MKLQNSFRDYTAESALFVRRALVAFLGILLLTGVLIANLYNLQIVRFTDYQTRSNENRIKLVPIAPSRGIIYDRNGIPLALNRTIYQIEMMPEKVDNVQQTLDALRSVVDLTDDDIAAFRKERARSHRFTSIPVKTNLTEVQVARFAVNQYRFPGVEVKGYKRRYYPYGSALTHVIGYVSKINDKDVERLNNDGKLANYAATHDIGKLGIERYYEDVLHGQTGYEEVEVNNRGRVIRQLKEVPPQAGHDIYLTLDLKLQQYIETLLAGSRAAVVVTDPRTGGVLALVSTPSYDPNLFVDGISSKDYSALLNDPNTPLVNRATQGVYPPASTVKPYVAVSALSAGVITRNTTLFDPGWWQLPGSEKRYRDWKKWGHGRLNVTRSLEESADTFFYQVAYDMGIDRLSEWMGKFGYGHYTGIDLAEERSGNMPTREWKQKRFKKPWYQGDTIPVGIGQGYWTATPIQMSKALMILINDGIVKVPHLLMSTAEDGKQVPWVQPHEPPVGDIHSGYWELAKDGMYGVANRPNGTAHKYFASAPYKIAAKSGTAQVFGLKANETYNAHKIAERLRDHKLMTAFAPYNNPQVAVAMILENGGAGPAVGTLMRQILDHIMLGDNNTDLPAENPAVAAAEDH
The experiment in a line: Bocillin FL competition binding assay, PBP2. Also noted: species or system Escherichia coli K12. The conditions noted are these: 15 min pre-incubation. The method in brief:
(§3)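 E. coli K12 membrane extracts (100 µg protein) pre-incubated 15 min with compound (0.005–2,480 µg/mL) in pH 7 phosphate/350 mM NaCl, then labelled with Bocillin FL 30 min at 35°C; SDS-PAGE fluorescence (ex 450/em 520 nm), μg/mL reported. PBP1a/1b unresolved, reported combined.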

In assay [10] the test system is hyper-permeable E. coli 901C. The experiment in a line: Broth microdilution MIC assay, hyper-permeable E. coli. The conditions noted are these: Escherichia coli, read-out: E. coli 901C MIC. It is filed as cell-based. The method in brief: (§4)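 Colonies from Mueller Hinton II agar grown 3-5 h at 37° C in cation-adjusted MH broth; OD600-adjusted inoculum, 5×10^5 CFU/mL final, added to 2-fold compound series. 16-20 h, 37° C. Visual MIC, no-growth endpoint.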

Assay [11] deals with E. coli DH5a harboring KPC-2. The experiment in a line: microbe, parasite or virus in culture. The conditions noted are these: Escherichia coli, read-out: MIC, β-lactamase KPC. The format is cell-based. How it is done: To determine the ability of test compounds to potentiate the inhibition of the growth of bacterial strains, classic cell based broth microdilution MIC assays were employed. MIC assays are performed according to CLSI methods except where otherwise noted (CLSI, 2011 and CLSI, 2009). The reference strain S. aureus ATCC 29213 and the hyper-permeable E. coli 901C were used to determine the ability of the PBP compounds to inhibit bacterial growth. Briefly, cryo-preserved bacterial cultures of clinical strains are streaked for isolation on appropriate agar medium, in this case Mueller Hinton II agar. Following incubation to allow formation of colonies these plates are sealed with parafilm and stored refrigerated for up to two weeks. For preparation of assay inocula and to ensure low variability, at least 5 colonies are picked from the agar plates with an inoculating loop and aseptically transferred to a culture tube containing 3 mL of Mueller-Hinton Broth (supplemented with divalent cations to required levels based on Manufacturers' certification). The broth culture is grown for 3-5 hours at 37° C. with shaking at 200 rpm. […] After the dilution plates are set up the growing cultures are then diluted in a cuvette containing MH II broth and the optical density is measured at 600 nm. […] The MIC is read visually as the lowest concentration well with no bacterial growth. […]

A further assay has as its target T2, E. coli PBP3 (Escherichia coli, UniProt P0AD68).
T2 construct: 100 μg's of total membrane protein extracts containing PBPs; endogenous in cells; host or cells: Escherichia coli K12, membrane protein fraction
The experiment in a line: Bocillin FL competition binding assay, PBP3. More on the design: species or system Escherichia coli K12. The conditions noted are these: 15 min pre-incubation. In outline: as §3

The test system of a further assay is E. coli K12 PBP1a/b. The assay can be described thus: Bocillin FL competition binding assay, PBP1a/1b combined. Also noted: species or system Escherichia coli K12. The conditions noted are these: 15 min pre-incubation, PBP 1a/1b combined. In outline: as §3
A further assay deals with S. aureus ATCC 29213. The experiment in a line: Broth microdilution MIC assay, S. aureus. As to conditions: Staphylococcus aureus, ATCC29213; broth microdilution, 16-20 hours at 37° C.; read-out: S. aureus 29213 MIC. It is filed as cell-based. The method in brief:
as §4

The structures appear in SMILES notation.

T2 sequence (P0AD68 1-577): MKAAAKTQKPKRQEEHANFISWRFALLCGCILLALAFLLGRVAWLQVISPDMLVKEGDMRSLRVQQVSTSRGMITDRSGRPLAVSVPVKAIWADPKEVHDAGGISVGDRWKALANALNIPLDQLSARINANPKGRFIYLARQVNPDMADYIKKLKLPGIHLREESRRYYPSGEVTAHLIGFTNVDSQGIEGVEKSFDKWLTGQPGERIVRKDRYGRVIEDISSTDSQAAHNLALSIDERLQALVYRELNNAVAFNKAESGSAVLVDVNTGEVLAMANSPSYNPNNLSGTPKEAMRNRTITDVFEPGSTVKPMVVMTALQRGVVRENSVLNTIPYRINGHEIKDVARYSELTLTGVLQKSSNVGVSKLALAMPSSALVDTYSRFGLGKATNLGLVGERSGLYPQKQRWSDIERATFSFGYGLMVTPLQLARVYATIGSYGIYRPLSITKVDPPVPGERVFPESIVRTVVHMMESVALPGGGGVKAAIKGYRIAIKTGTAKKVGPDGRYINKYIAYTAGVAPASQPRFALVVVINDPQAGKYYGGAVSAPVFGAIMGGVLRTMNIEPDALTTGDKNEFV

Regarding `C[C@H]1[C@H](NC(=O)/C(=N\OC(C)(C)C(=O)O)c2csc(N)n2)C(=O)N1S(=O)(=O)O` [Aztreonam, reference compound], the MIC amounted to 32 µg/mL in assay [1]; 0.06 µg/mL in assay [2]; 0.06 µg/mL in assay [3]; 0.06 µg/mL in [4]; 0.125 µg/mL in [6]; 8 µg/mL in [7]. In addition, the values for the MIC in [8] and in assay [9] were 1 µg/mL and 0.06 µg/mL, respectively. Moreover, the “Effect of expressed β-lactamase on MIC” value in assay [5] is “weaker MICs in those strains”.
On to `CO/N=C(\C(=O)N[C@H]1Cc2cccc(C(=O)O)c2OB1O)c1csc(N)n1` [Example 1, (R,Z)-3-(2-(2-aminothiazol-4-yl)-2-(methoxyimino)acetamido)-2-hydroxy-3,4-dihydro-2H-benzo[e][1,2]oxaborinine-8-carboxylic Acid], for which the MIC in assay [1] was 8 µg/mL; in [2], 8 µg/mL; in assay [10] it was under 64 µg/mL; in assay [3], 8 µg/mL; in assay [11] it was 4 µg/mL; in [4], 8 µg/mL. Moreover, the MIC in [6] is 8 µg/mL; in assay [7], 8 µg/mL; in assay [8] it was 8 µg/mL; in the assay with S. aureus ATCC 29213, 64 to 128 µg/mL; in [9], 8 µg/mL. In addition, the “E. coli PBP2 Potency” value on E. coli PBP2 is reported as “A (A represents a potency of >1000 μg/mL)”. Moreover, the “Effect of expressed β-lactamase on MIC” value in [5] is listed as “the same MIC values in strains regardless of the β-lactamase expressed”. Besides, the “E. coli PBP3 Potency” value at E. coli PBP3 is “C (C represents a potency of <64 μg/mL)”. Moreover, the “E. coli K12 PBP1a/b Potency” value with E. coli K12 PBP1a/b is given as “C (C represents a potency of <64 μg/mL)”.
